Source: patent US12503438B2, “Compounds for the treatment of kinase-dependent disorders” (Exelixis, Inc., priority 2019, dated 2025)

Biological target: Met (Homo sapiens, UniProt P08581)
Assay: Met autophosphorylation ELISA in PC-3 cells
Format: cell-based
Design: endogenous in cells; host or cells: PC-3 prostate cancer cells (ATCC #CRL-1435)
Conditions: cellular activity, HGF-stimulated, phospho-Met ELISA, read-out: c-Met IC50
Summary of the method: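 Phospho-Met (panTyr) sandwich ELISA on lysates of PC-3 cells given 100 ng/mL HGF for 10 min after 1 h compound exposure (8-point curve, 0.3% DMSO) following 3 h serum starvation. Normalised to HGF-stimulated DMSO and reference-inhibitor wells; 4-parameter logistic IC50.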

Sequence of Met (P08581 25-1390): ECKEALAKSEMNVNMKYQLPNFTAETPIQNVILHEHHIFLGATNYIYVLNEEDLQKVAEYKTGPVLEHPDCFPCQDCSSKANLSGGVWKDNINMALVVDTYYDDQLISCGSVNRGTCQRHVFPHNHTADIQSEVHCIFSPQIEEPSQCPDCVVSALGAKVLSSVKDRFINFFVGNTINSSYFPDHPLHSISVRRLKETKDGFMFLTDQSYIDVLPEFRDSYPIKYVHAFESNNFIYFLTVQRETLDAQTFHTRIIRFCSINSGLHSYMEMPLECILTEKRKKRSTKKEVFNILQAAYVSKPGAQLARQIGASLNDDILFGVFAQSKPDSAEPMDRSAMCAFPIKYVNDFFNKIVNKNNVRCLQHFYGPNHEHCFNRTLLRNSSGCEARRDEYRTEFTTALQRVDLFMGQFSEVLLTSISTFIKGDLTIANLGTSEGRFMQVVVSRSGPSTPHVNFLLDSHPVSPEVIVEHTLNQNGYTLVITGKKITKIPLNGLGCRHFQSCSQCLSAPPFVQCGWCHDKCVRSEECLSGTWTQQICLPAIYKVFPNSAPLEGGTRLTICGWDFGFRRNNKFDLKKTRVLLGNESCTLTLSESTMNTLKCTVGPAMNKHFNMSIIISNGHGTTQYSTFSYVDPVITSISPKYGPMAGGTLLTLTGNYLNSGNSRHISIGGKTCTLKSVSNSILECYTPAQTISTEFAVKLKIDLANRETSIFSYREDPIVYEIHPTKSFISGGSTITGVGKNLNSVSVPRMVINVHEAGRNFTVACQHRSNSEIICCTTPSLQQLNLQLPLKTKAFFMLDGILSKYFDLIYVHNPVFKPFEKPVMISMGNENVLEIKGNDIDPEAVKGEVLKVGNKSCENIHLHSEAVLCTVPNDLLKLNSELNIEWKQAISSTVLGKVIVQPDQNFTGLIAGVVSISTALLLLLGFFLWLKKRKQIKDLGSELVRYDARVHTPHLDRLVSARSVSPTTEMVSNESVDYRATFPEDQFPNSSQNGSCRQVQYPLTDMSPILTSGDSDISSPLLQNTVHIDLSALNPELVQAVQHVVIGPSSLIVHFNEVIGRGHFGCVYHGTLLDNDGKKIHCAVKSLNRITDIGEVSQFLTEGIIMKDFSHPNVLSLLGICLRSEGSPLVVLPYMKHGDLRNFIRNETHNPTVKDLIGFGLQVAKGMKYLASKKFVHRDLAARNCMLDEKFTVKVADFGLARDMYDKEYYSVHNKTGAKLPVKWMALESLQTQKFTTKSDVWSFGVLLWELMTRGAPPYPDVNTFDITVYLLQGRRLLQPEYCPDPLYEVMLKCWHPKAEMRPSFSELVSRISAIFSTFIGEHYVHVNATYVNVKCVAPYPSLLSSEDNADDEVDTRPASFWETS

| IC50 | SMILES |
| --- | --- |
| 10 to 100 nM | CC(C)n1cc(-c2ccc3c(Oc4ccc(NC(=O)C5(C(=O)Nc6ccc(F)cc6)CC5)cc4)ccnc3c2)cn1 [Compound 21, 1-N′-(4-Fluorophenyl)-1-N-[4-[7-(1-propan-2-ylpyrazol-4-yl)quinolin-4-yl]oxyphenyl]cyclopropane-1,1-dicarboxamide] |
| 10 to 100 nM | N#Cc1cc(-c2ccc3c(Oc4ccc(NC(=O)C5(C(=O)Nc6ccc(F)cc6)CC5)cc4)ccnc3c2)ccn1 [Compound 34, 1-N-[4-[7-(2-Cyanopyridin-4-yl)quinolin-4-yl]oxyphenyl]-1-N′-(4-fluorophenyl)cyclopropane-1,1-dicarboxamide] |
| 10 to 100 nM | Cc1cc2c(Oc3cc(Cl)c(NC(=O)C4(C(=O)Nc5ccc(F)cc5)CC4)cc3F)ccnc2cc1-c1cnn(C)c1 [Compound 112, 1-N′-[2-Chloro-5-fluoro-4-[6-methyl-7-(1-methylpyrazol-4-yl)quinolin-4-yl]oxyphenyl]-1-N-(4-fluorophenyl)cyclopropane-1,1-dicarboxamide] |
| 100 to 300 nM | C#Cc1ccc2c(Oc3ccc(NC(=O)C4(C(=O)Nc5ccc(F)cc5)CC4)cc3)ccnc2c1 [Compound 64, 1-N-[4-(7-Ethynylquinolin-4-yl)oxyphenyl]-1-N′-(4-fluorophenyl)cyclopropane-1,1-dicarboxamide] |
| 10 to 100 nM | O=C(Nc1ccc(F)cc1)C1(C(=O)Nc2cc(F)c(Oc3ccnc4cc(-c5cccnc5)ccc34)cc2F)CC1 [Compound 115, 1-N′-[2,5-Difluoro-4-(7-pyridin-3-ylquinolin-4-yl)oxyphenyl]-1-N-(4-fluorophenyl)cyclopropane-1,1-dicarboxamide] |
| ≤ 10 nM | O=C(Nc1ccc(F)cc1)C1(C(=O)Nc2ccc(Oc3ccnc4cc(-c5cnn(CCF)c5)ccc34)cc2)CC1 [Compound 14, 1-N-[4-[7-[1-(2-Fluoroethyl)pyrazol-4-yl]quinolin-4-yl]oxyphenyl]-1-N′-(4-fluorophenyl)cyclopropane-1,1-dicarboxamide] |
| 10 to 100 nM | CC(=O)N1CCC(n2cc(-c3ccc4c(Oc5ccc(NC(=O)C6(C(=O)Nc7ccc(F)cc7)CC6)cc5)ccnc4c3)cn2)CC1 [Compound 62, 1-N-[4-[7-[1-(1-Acetylpiperidin-4-yl)pyrazol-4-yl]quinolin-4-yl]oxyphenyl]-1-N′-(4-fluorophenyl)cyclopropane-1,1-dicarboxamide] |
| 100 to 300 nM | COc1cncc(-c2ccc3c(Oc4ccc(NC(=O)C5(C(=O)Nc6ccc(F)cc6)CC5)cc4)ccnc3c2)c1 [Compound 47, 1-N′-(4-Fluorophenyl)-1-N-[4-[7-(5-methoxypyridin-3-yl)quinolin-4-yl]oxyphenyl]cyclopropane-1,1-dicarboxamide] |
| > 300 nM | O=C(Nc1ccc(F)cc1)C1(C(=O)Nc2ccc(Oc3ccnc4cc(-c5cnn[nH]5)ccc34)cc2)CC1 [Compound 65, 1-N′-(4-Fluorophenyl)-1-N-[4-[7-(1H-triazol-5-yl)quinolin-4-yl]oxyphenyl]cyclopropane-1,1-dicarboxamide] |
| ≤ 10 nM | O=C(Nc1ccc(F)cc1)C1(C(=O)Nc2ccc(Oc3ccnc4cc(-c5cn[nH]c5)ccc34)cc2)CC1 [Compound 67, 1-N′-(4-Fluorophenyl)-1-N-[4-[7-(1H-pyrazol-4-yl)quinolin-4-yl]oxyphenyl]cyclopropane-1,1-dicarboxamide] |
| > 300 nM | CN(C(=O)C1(C(=O)Nc2ccc(Oc3ccnc4cc(-c5cnn(C)c5)ccc34)cc2)CC1)c1ccc(F)cc1 [Compound 82A, 1-N′-(4-Fluorophenyl)-1-N′-methyl-1-N-[4-[7-(1-methylpyrazol-4-yl)quinolin-4-yl]oxyphenyl]cyclopropane-1,1-dicarboxamide] |
| ≤ 10 nM | Cn1cc(-c2ccc3c(Oc4ccc(NC(=O)C5(C(=O)Nc6ccc(F)cc6)CC5)cc4)ccnc3c2)cn1 [Compound 11, 1-N′-(4-Fluorophenyl)-1-N-[4-[7-(1-methylpyrazol-4-yl)quinolin-4-yl]oxyphenyl]cyclopropane-1,1-dicarboxamide] |
